Tests used:
[1] = system: human embryonic stem cells (hESC); test: Endoderm differentiation of hESC with small-molecule inhibitors, flow cytometry of endoderm markers; assay type: cell-based
Source text: A variety of cell-type specific markers were used to monitor the differentiation of stem cells into endoderm cells in the flow cytometry, fluorescence imaging, and immunoassay experiments described below. To detect endoderm conversion, hESC-derived cell samples were stained for the expression of SOX17, FoxA2, and CXCR4 proteins. SOX17, FoxA2, and CXCR4 are proteins that are expressed by endoderm cells but not by stem cells. To detect stem cells, cell samples were stained for the expression of OCT4, a protein expressed by stem cells but not by endoderm cells.
Undifferentiated human embryonic stem cells (hES) were maintained at a density of 40,000 cells/cm^2 on qualified matrigel (BD, #354277) in TesR™2 medium ([…]™ Technologies #05860). Cultures were manually passaged twice a week. To prepare for endoderm differentiation, hESC cells were passaged into TesR™2 medium overnight. The following day, the TesR™2 medium was replaced with basal medium (DMEM/F12+Glutamax (Invitrogen, #10565) supplemented with B27 (Invitrogen, #17504-044)). No human embryos were destroyed in the process of obtaining stem cells for these methods. Furthermore, the plurality of stem cells is not obtained by the prior destruction of human embryos.
Unless otherwise noted, basal medium was supplemented with […] human Activin A (Peprotech, #120-14). When indicated, basal medium was also supplemented with an effective amount of, e.g., a growth factor such as […] human Wnt3a (R&D, #5036-WN-010), an isoform-specific P13K inhibitor or an mTOR inhibitor. […]
To prepare the cells for flow cytometry, hESC-derived cells grown under endoderm differentiation conditions were dissociated using Accutase (Innovative Cell technologies, #AT-104). Briefly, the cells were washed once in PBS, incubated with Accutase for 10 minutes at room temperature, pelleted, and washed in cold PBS. The Accutase-dissociated hESC-derived cell samples were stained with anti-CXC4 antibody, anti-SOX17 antibody, or anti-FoxA2 antibody. Additional cell samples were stained with isotype control antibodies (e.g., IgG1 or IgG2).
The cells that were to be stained with anti-CXCR4 antibody were washed once with cold DPBS and then directly stained with mouse anti-human CD184 (CXCR4)-IgG2-PE (BD, #555974) for one hour at 4° C. The cells that were to be stained with anti-SOX17 antibody or anti-FoxA2 antibody were first fixed for 25 minutes at 4° C. in fixation buffer (BD, #554655) and permeabilized for 30 minutes on ice in Perm Buffer III (BD, #554656). Anti-SOX17 staining was performed using a mouse anti-SOX17 IgG1-PE antibody (BD, #561591) at room temperature for 30 minutes. Anti-FoxA2 staining was performed using a mouse anti-human FoxA2 IgG1 (BD, #561589) under the same conditions. A control sample of cells were fixed as described above and stained with either an anti-IgG1-PE antibody (BD, #554680) at room temperature for 30 minutes or an anti-IgG2-PE antibody (BD, #55574) for one hour at 4° C.
The antibody-stained hESC-derived cells were then analyzed via flow cytometry using a BD LSRFortessa™ cell analyzer. […] Approximately 1×10^6 cells were analyzed per sample.

[2] = system: hESC-derived cells; test: xCELLigence proliferation and viability time course; assay type: cell-based, human; details: 12 days, no medium change; Activin A + 750 nM Compound A, or Activin A + Wnt3a + 5 μM LY294002
Description: The hESC-derived cells grown under each condition were assayed for their proliferation and viability once a day for 12 days with no medium change using Roche's xCELLigence System according to standard protocol.
xCELLigence measured proliferation and viability as a function of impedance signal. High impedance signals indicated cell attachment to the surface of the culture dish, which is associated with increased proliferation. In contrast low impedance signals indicated cells' detachment from the surface of the culture dish, which is associated with cell death. […] The experiments whose results are depicted in FIG. 8 were performed in duplicate. Accordingly, there are two curves for each condition.

[3] = system: hESC-derived endoderm cells; test: CellTiter-Glo Luminescent Cell Viability Assay; assay type: cell-based, human; details: Activin A + 100 nM to 1.5 μM Compound A, 7 days
Source text: In this assay, metabolically active cells in each sample tested were quantified as a function of ATP levels produced by the sample.

[4] = system: human embryonic stem cells (hESC); test: AlphaLISA of SOX17 and OCT4 in hESC-derived cells; assay type: cell-based
Description: To detect OCT4, the cells were washed three times in PBS and lysed with 50 ul AlphaLISA Lysis Buffer (Perkin Elmer, #AL003C). The lysis buffer was added to each cell sample and mixed with the cells five times. The cell samples were then incubated in a plate shaker at room temperature for 15 minutes. 5 μl of the lysate from each sample was then transferred to a 384 well OptiPlate (Perkin Elmer, #6005629). 5 μl of 10 ug/ml anti-rabbit acceptor bead (Perkin Elmer, #AL104M) and […] of 0.2 nM of rabbit anti-OCT4 antibody (Cell Signaling, #2890) was added to each well and incubated for 2 hours at room temperature. Following the incubation, 5 μl of 0.5 nM mouse anti-OCT4 antibody (BD, #611203) and […] of 0.5 nM biotinylated goat anti-mouse antibody (Invitrogen, #B2763) were added to each well and incubated at room temperature for 2 hours. Following the incubation, […] of streptavidin donor beads (Perkin Elmer, #6760002B) were added to each well and incubated for 30 minutes. The OptiPlates were then analyzed using an Envision Multilabel Plate Reader (Perkin Elmer, #2104-0010). All beads and antibodies were diluted as necessary in IAB Buffer (Perkin Elmer, #AL000C)+50 mM NaCl. Four replicate assays were performed.
To detect SOX17, the cells were washed three times in PBS and lysed with 50 ul Roche Complete Lysis Buffer (Roche, #04719956001). The lysis buffer was added to each cell sample and mixed with the cells five times. The cell samples were then incubated in a plate shaker at room temperature for 15 minutes. 5 μl of the lysate from each sample was then transferred to a 384 well OptiPlate (Perkin Elmer, #6005629). 5 μl of 10 ug/ml anti-rabbit acceptor bead (Perkin Elmer, #AL104M) and […] of 1 nM of rabbit anti-SOX17 antibody (Sigma, #AV33271) was added to each well and incubated for 2 hours at room temperature. Following the incubation, 5 μl of 0.5 nM mouse anti-SOX antibody (Sigma, #SAB3300093) and […] of 0.5 nM biotinylated goat anti-mouse antibody (Invitrogen, #B2763) were added to each well and incubated at room temperature for 2 hours. Following the incubation, […] of streptavidin donor beads (Perkin Elmer, #6760002B) were added to each well and incubated for 30 minutes. The OptiPlates were then analyzed using an Envision Multilabel Plate Reader (Perkin Elmer, #2104-0010). All beads and antibodies were diluted as necessary in IAB Buffer (Perkin Elmer, #AL000C) Four replicate assays were performed.
After a 3-day treatment, cells were harvested and stained with anti-SOX17 antibody as described above in preparation for AlphaLISA analysis.

[5] = target: mTOR (Homo sapiens, UniProt P42345); test: In vitro kinase profile, PI3K alpha_MTOR score; assay type: biochemical
Description: (§1) The effect of each compound on the PI3K/AKT/MTOR pathway was evaluated in two ways: via a kinase profile (FIG. 23) and via phospho imaging assays (i.e., immunofluorescence assays using antibodies specific for the phosphorylated form of mTOR or AKT). In vitro kinase profiling provided percent inhibition for numerous targets within the PI3K cell signaling pathway, and cell-based imaging assays were performed to directly visualize the effect of each compound on phosphorylated Akt and phosphorylated mTOR in the cell system used for differentiation.
(§2) In column 2 of Table 6, the PI3K alpha_MTOR score reflects the ability of a compound to inhibit the phosphorylation of PI3K alpha and mTOR, where + indicates minimal inhibition, and +++ indicates maximal inhibition. In column 3 of Table 6, the score indicates the ratio of phosphorylated mTOR (as measured by fluorescence intensity) in cells treated with a compound and the phosphorylated mTOR (as measured by fluorescence intensity) in cells that were not treated with the compound. In column 4 of Table 6, the score indicates the ratio of phosphorylated AKT (as measured by fluorescence intensity) in cells treated with a compound and the phosphorylated AKT (as measured by fluorescence intensity) in cells that were not treated with the compound. A reported effect of AKT inhibitors is an increase in phosphorylated AKT.

[6] = system: Akt; test: In vitro kinase profile; assay type: biochemical
Description: as §1

[7] = system: phosphorylated mTOR; test: Phospho imaging assay (immunofluorescence); assay type: cell-based, human
Description: as §1, §2

[8] = system: phosphorylated AKT; test: Phospho imaging assay (immunofluorescence); assay type: cell-based, human
Description: as §1, §2

[9] = system: human embryonic stem cells (hESC); test: Dose response with Activin A for optimal concentration (SOX17, cell death); assay type: cell-based
Description: To facilitate extended characterization, it was necessary to determine the optimal concentration of each of the compounds for use subsequent experiments. The optimal concentration of each compound was determined based on two parameters: highest efficiency of endoderm differentiation and low toxicity. Each compound was tested with Activin A in a dose response manner. The concentration that gave the highest % SOX17 expressing cells at Day 3 without causing more than 30% cell death compared to control was determined for each compound. The yield of differentiation went from 4% to 81% SOX17+ cells at day 3.

[10] = target: PI3K alpha (Homo sapiens, UniProt P42336); test: In vitro kinase profile, PI3K alpha_MTOR score; assay type: biochemical
Description: as §1, §2

[11] = system: hESC-derived endoderm cells; test: Hepatocyte differentiation of endoderm cells, flow cytometry; assay type: cell-based, human; details: hepatoblast medium in the absence of FGF4 and BMP2
Description: After 10-day treatment, the endoderm-derived cells were harvested using TrypLE. Briefly, the cells were washed once in PBS, incubated with TrypLE for 5 minutes at 37° C. The incubated cells were then diluted 10-fold with PBS, pelleted, and prepared for further analysis.
Prior to flow cytometry analysis, the Accutase-dissociated endoderm-derived cell samples were stained with an anti-AFP primary antibody followed by a secondary antibody.
The harvested endoderm-derived cells were washed with cold DPBS. […] The cells were washed three more times in permeabilization/wash buffer prior to flow cytometry analysis.
HepG2 cells, which were derived from a well-differentiated hepatocellular carcinoma, were also stained as a positive control. The cells were analyzed via flow cytometry as described above. Approximately 1.5×10^6 cells were analyzed per sample.
Endoderm cells were treated with different combinations of growth factors and tested for their capability to differentiate into hepatocytes. hESC were differentiated into endoderm cells as described above. […] After 10 days of treatment, the endoderm-derived cells were prepared for flow cytometry and imaging analysis as described above.
An additional control sample was prepared in which endoderm cells obtained by culture with Activin A alone were cultured in hepatoblast medium in the absence of any additional growth factors. […]

[12] = time course, Activin A + 750 nM Compound A, no Wnt3a, day 5
[13] = dose response of Compound A with Activin A
[14] = Activin A + 750 nM inhibitor, no Wnt3a, 3-day treatment

Sequence of PI3K alpha (P42336 whole entry, species assumed): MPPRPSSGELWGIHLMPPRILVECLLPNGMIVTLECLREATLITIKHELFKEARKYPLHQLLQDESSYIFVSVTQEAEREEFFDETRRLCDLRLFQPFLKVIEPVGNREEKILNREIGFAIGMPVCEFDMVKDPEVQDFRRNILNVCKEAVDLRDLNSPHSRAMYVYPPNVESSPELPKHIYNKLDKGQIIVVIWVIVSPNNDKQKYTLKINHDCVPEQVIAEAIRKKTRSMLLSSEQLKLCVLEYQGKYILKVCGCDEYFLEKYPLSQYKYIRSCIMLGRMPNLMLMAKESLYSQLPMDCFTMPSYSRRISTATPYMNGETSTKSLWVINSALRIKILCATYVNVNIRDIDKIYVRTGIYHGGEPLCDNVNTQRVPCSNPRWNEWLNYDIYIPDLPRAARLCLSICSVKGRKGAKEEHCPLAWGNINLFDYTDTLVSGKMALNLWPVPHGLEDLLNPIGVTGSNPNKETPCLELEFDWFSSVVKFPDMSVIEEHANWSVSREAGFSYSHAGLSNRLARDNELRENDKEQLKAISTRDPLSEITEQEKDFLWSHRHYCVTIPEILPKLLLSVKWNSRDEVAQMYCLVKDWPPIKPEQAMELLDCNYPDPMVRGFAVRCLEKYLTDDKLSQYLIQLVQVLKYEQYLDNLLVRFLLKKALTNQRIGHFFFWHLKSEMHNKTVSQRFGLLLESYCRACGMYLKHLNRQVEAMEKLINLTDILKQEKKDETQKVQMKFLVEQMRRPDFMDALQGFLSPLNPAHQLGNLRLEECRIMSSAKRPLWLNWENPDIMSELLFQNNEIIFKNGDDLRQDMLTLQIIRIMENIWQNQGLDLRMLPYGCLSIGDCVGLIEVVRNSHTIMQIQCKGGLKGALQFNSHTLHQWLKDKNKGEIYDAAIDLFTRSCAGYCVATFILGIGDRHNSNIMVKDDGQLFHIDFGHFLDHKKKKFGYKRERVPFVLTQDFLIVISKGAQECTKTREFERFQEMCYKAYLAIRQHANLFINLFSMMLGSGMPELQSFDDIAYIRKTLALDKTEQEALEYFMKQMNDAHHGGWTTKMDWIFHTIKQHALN
Sequence of PI3K alpha (P27986 whole entry partner, species assumed): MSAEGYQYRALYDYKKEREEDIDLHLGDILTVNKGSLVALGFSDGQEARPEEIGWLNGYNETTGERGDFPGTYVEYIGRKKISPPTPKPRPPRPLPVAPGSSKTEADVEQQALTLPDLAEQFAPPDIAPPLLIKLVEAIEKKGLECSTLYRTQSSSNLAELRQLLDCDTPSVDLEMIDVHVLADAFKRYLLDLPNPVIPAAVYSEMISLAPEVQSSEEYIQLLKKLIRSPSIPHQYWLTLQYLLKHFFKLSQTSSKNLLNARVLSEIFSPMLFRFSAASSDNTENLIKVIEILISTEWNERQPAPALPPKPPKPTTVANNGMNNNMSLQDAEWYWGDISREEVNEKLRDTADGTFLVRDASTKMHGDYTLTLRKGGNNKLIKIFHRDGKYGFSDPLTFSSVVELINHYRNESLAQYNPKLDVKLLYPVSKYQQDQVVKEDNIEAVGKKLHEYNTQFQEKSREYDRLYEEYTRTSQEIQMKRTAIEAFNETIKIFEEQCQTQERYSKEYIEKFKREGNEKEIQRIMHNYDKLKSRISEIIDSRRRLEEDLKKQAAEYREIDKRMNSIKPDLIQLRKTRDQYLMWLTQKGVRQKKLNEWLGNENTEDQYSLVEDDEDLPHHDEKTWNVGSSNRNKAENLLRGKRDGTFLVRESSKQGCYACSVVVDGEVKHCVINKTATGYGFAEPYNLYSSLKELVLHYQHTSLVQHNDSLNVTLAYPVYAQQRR

CS(=O)(=O)N1CCN(Cc2cc3nc(-c4cccc5[nH]ncc45)nc(N4CCOCC4)c3s2)CC1 [Compound A, 4-[2-(1H-indazol-4-yl)-6-[(4-methylsulfonylpiperazin-1-yl)methyl]thieno[3,2-d]pyrimidin-4-yl]morpholine]
% of hESC-derived cells expressing SOX17 ([1]; Activin A + Wnt3a + 500 nM inhibitor, 3-day treatment): 93.5-93.9%
% of hESC-derived cells expressing SOX17 ([1]; dose response, Activin A + 750 nM Compound A, no Wnt3a, 3-day treatment): 84%
% of hESC-derived cells expressing SOX17 ([1]; isoform-specific PI3K inhibitor + Activin A alone, 3-day treatment): about 77.35%
% of hESC-derived cells expressing CXCR4 [1, 12]: 82%
% of hESC-derived cells expressing FoxA2 [1, 12]: 87%
% of hESC-derived cells expressing SOX17 [1, 12]: 91%
viability and proliferation (impedance signal) [2]: remain viable and proliferative past day 4
viability (ATP levels) [3]: greater viability at 7 days
OCT4 expression (AlphaLISA) [4, 13]: decreases
SOX17 expression (AlphaLISA) [4, 13]: increases with increasing concentrations of Compound A up to 750 nM

CCNC(=O)Nc1ccc2ncc(Nc3ccc(C)cc3)nc2n1 [Compound D1066]
reduction of phosphorylation of mTOR (FIG. 23) [5]: did not show reduction of phosphorylation of mTOR or Akt
reduction of phosphorylation of Akt (FIG. 23) [6]: did not show reduction of phosphorylation of mTOR or Akt
effect on mTOR phosphorylation in cell-based imaging assays [7]: did not exhibit any effects on Akt or mTOR phosphorylation
effect on Akt phosphorylation in cell-based imaging assays [8]: did not exhibit any effects on Akt or mTOR phosphorylation

CO[C@@H]1[C@H](N(C)C(=O)c2ccccc2)C[C@H]2O[C@]1(C)n1c3ccccc3c3c4c(c5c6ccccc6n2c5c31)C(=O)NC4 [PKC412]
reduction of phosphorylation of mTOR (FIG. 23) [5]: potent reduction of phosphorylation
toxicity [9]: may be toxic

COc1ccc(COc2cc3oc(=O)c4cc(C(C)O)ccc4c3cc2OC)cc1 (stereo not drawn) [Palomid 529]
reduction of phosphorylation of mTOR (FIG. 23) [5]: did not show reduction of phosphorylation of mTOR or Akt
reduction of phosphorylation of Akt (FIG. 23) [6]: did not show reduction of phosphorylation of mTOR or Akt
effect on mTOR phosphorylation in cell-based imaging assays [7]: did not exhibit any effects on Akt or mTOR phosphorylation
effect on Akt phosphorylation in cell-based imaging assays [8]: did not exhibit any effects on Akt or mTOR phosphorylation

CO[C@H]1C[C@@H]2CC[C@@H](C)[C@@](O)(O2)C(=O)C(=O)N2CCCC[C@H]2C(=O)O[C@H]([C@H](C)C[C@@H]2CC[C@@H](OCCO)[C@H](OC)C2)CC(=O)[C@H](C)/C=C(\C)[C@@H](O)[C@@H](OC)C(=O)[C@H](C)C[C@H](C)/C=C/C=C/C=C/1C [everolimus]
PI3K alpha_MTOR score: MTOR [5]: PI3K alpha+_MTOR+
PI3K alpha_MTOR score: PI3K alpha [10]: PI3K alpha+_MTOR+
endoderm conversion (SOX17, FoxA2, CXCR4 flow cytometry) [1, 14]: higher degree of endoderm conversion
Avg(Avg (Ph MTOR_60m_%C # Spots)) ([7]; 1 h): 36.46 %C
endoderm conversion (SOX17 AlphaLISA) [4, 14]: better endoderm conversion than cells cultured in Activin A alone or cells cultured with an Akt inhibitor

B1: Activin A: human Activin A (Peprotech), member of the TGF beta family (protein, UniProt P08476 311-426, looked up)
Inhibin beta A chain: GLECDGKVNICCKKQFFVSFKDIGWNDWIIAPSGYHANYCEGECPSHIAGTSGSSLSFHSTVINHYRMRGHSPFANLKSCCVPTKLRPMSMLYYDDGQNIIKKDIQNMIVEECGCS
modifications: Inhibin beta A chain homodimer
% of endoderm-derived cells expressing AFP [11]: 7.65%
% of hESC-derived cells expressing SOX17 ([1]; Activin A alone, 3-day treatment): 20%

— patent publication US20170002313A1, “COMPOSITIONS AND METHODS OF OBTAINING AND USING ENDODERM AND HEPATOCYTE CELLS” (Genentech Inc., priority 2012, published 2017)
